Assay results as given in ChEMBL document CHEMBL4251726, “ATR Inhibitors as Potential Treatment for Cancers” (ACS Med Chem Lett, 2018).

Experiments:
[1] = target: ATR/ATRIP (Homo sapiens, UniProt Q13535); assay: Inhibition of recombinant human full length ATR/ATRIP expressed in mammalian expression system using c-Myc-tagged p53 as substrate incubated for 15 mins followed by substrate addition measured after 25 to 35 mins by TR-FRET assay
[2] = target: T1, Serine/threonine-protein kinase ATR (Homo sapiens, UniProt Q13535); assay: Inhibition of ATR in human U2OS cells harboring ER-LBD fused TopBPI activation domain (978 to 1286 residues) assessed as reduction in 4-OHT-mediated nuclear translocation of TopBPI fragment by measuring gammaH2AX level after 24 hrs by Alexa Fluor 488 staining based fluorescence assay; type: cell-based
T1 sequence (Q13535 whole entry, the tested form may be a part): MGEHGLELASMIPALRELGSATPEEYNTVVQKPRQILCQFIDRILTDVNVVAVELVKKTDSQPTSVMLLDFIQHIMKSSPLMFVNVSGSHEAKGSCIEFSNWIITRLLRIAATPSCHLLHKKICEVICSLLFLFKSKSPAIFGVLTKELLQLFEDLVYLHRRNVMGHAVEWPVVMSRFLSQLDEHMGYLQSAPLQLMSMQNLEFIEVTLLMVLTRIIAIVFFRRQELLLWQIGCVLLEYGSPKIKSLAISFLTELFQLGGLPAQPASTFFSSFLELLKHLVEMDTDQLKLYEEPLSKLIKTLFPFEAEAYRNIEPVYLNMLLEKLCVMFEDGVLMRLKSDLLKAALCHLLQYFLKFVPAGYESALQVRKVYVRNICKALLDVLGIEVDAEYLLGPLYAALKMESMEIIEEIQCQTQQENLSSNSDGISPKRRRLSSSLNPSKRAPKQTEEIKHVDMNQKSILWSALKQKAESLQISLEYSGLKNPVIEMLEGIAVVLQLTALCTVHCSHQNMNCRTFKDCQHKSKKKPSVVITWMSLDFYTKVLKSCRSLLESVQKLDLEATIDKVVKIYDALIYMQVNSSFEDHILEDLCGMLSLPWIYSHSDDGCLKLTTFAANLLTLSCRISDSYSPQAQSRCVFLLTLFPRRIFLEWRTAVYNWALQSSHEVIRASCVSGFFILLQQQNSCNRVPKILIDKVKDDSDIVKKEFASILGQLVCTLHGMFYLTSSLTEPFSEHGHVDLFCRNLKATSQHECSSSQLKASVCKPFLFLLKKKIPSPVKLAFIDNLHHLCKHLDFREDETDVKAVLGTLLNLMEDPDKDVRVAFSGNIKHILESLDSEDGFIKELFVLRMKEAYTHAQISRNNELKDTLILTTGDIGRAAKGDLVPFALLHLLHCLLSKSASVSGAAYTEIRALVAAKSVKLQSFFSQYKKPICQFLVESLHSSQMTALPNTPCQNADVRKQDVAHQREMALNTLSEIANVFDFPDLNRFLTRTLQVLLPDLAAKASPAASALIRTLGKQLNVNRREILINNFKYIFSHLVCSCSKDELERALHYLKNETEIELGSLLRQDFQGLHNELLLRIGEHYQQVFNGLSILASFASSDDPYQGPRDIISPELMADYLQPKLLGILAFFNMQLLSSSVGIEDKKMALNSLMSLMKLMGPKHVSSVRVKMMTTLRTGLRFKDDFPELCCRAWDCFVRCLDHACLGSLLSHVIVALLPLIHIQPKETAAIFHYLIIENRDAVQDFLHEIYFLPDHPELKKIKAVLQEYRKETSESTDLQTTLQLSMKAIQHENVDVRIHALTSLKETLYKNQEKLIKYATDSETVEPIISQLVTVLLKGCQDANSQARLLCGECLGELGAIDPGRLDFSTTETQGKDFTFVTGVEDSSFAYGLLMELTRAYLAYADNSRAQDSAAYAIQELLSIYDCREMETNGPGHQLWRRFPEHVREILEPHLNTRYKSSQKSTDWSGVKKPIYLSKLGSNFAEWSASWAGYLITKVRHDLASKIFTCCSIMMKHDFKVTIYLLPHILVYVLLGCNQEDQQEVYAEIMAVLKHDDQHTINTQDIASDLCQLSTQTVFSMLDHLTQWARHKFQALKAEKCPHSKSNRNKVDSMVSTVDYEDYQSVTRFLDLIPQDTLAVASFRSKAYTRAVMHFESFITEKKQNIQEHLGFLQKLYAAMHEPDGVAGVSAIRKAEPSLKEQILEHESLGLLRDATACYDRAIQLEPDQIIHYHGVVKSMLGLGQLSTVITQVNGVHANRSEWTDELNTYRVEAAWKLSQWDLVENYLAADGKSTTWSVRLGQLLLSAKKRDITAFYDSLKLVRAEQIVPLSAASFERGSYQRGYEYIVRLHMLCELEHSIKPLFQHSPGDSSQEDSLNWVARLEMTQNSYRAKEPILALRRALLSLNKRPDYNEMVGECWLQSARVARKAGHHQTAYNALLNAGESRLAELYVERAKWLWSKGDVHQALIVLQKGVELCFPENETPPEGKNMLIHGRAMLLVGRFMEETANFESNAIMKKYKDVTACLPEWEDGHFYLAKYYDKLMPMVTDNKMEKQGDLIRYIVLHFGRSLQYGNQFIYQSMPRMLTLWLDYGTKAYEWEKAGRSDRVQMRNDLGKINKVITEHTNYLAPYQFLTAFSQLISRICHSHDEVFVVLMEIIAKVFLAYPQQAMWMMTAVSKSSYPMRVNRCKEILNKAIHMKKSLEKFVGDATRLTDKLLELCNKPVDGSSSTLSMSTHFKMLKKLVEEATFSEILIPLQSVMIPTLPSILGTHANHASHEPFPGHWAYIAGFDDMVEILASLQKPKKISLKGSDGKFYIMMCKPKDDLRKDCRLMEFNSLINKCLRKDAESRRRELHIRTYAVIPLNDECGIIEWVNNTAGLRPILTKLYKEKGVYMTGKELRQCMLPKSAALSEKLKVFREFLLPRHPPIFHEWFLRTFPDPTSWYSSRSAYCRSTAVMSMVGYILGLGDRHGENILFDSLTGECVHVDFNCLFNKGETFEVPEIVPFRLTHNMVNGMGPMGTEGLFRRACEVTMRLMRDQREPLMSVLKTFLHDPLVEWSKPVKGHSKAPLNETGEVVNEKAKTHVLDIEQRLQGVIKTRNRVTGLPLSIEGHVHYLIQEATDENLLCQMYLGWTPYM

[3] = target: T1, Serine/threonine-protein kinase ATR; assay: Inhibition of ATR in human HT29 cells assessed as reduction in Chk1 phosphorylation at Ser345 residues after 4 hrs by Alexa Fluor 488 staining based fluorescence assay; type: cell-based

ATR/ATRIP, sequence (Q13535 whole entry, the tested form may be a part): as above
ATR/ATRIP, sequence (Q8WXE1 whole entry, further chain, the tested form may be a part): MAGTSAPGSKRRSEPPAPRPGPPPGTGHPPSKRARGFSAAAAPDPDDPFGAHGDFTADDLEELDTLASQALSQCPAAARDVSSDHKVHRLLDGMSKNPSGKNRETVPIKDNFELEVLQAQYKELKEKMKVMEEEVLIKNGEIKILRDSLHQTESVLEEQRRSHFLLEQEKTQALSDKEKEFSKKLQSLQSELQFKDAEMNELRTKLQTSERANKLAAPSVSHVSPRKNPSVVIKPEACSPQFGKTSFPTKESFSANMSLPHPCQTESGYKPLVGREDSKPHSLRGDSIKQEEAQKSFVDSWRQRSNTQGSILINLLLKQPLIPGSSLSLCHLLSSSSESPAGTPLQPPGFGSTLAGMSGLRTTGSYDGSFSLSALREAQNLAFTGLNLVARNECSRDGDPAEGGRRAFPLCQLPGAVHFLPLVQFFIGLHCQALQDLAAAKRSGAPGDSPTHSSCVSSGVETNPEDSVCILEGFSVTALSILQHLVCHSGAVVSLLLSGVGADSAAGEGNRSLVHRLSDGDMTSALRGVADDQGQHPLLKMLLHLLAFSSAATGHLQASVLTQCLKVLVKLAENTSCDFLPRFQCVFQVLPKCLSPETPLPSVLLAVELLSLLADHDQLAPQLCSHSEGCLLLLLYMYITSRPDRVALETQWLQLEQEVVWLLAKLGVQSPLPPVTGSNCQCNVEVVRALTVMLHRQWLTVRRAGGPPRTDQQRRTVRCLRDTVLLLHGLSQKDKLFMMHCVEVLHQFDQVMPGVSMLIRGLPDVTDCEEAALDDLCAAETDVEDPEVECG

SMILES	IC50 [1] [nM]	IC50 [2] [nM]	IC50 [3] [nM]
CNc1nc2ccccc2n1-c1nc2c(c(C(C)(C)S(C)(=O)=O)n1)OC[C@@H]1COC[C@@H](C)N21	< 1	< 10	< 10
CCNc1cnc2[nH]ccc2c1-c1nc2c(c(C(C)(C)S(C)(=O)=O)n1)OC[C@@H]1COC[C@@H](C)N21	1 to 10	–	10 to 100
CNc1cnc2[nH]ccc2c1-c1nc2c(c(C(C)(C)O)n1)OC[C@@H]1COC[C@@H](C)N21	< 1	10 to 100	10 to 100

Continued, values first:

IC50 [1] [nM]	IC50 [2] [nM]	IC50 [3] [nM]	SMILES
10 to 100	–	–	C[C@@H]1COC[C@H]2COc3c(nc(N(C)c4ccn[nH]4)nc3C(C)(C)S(C)(=O)=O)N21
< 1	10 to 100	< 10	CNc1cnc2[nH]ccc2c1-c1nc2c(c(C(C)(C)S(C)(=O)=O)n1)OC[C@@H]1COC[C@@H](C)N21
10 to 100	100 to 1000	–	CNc1nccn1-c1nc2c(c(C(C)(C)S(C)(=O)=O)n1)OC[C@@H]1COC[C@@H](C)N21
